Data on 90 compounds can be found in a melting point compilation (Tetko et al.; mined from patent text by program, amines drawn as free bases though some values may be those of a salt).

Broadly, the melting point is the temperature, or range, at which the solid turns liquid. `O=C(Nc1ccc(Cl)cc1)c1ccccc1Cl` returned a melting point of 93.7 to 95.1 °C.
In turn, `N#Cc1cn(-c2cccc(F)c2)c(=O)[nH]c1=O` gave a melting point of 246 °C.
The value for `O=C(NCc1ccccc1Cl)c1ccc(Br)cc1` was 133 °C; that for `CCOc1ccccc1-c1cc(OC)c(C(=O)N2Cc3cccn3Cc3ccccc32)cc1Cl` was 213 to 215 °C; that for `Cc1ccnc(C(=O)c2[nH]c3cc(Cl)c(Cl)cc3c2CC(=O)O)c1` was 220 to 224 °C.
The value for `N#Cc1cc2c(cc1O)OCC21C(=O)N(Cc2ccccc2C(F)(F)F)c2ccccc21` (stereo not given) was 122 to 124 °C; that for `CCNC(=O)N1C(=O)[C@H](O)[C@@H]1c1ccccc1` was 141 to 142 °C.
Compound `CC(=O)SC(C(C)=O)c1ccccc1` (stereo not given) returned a melting point of 31 to 32 °C.
Take `CCOc1cc(-c2cc(C(F)(F)F)n3ncc(-c4nc(-c5ccc(N)nc5)no4)c3n2)ccc1C(F)(F)F`: the melting point was determined as 263 °C.
The value for `CC1(O)c2ccc(Cl)cc2CC1(F)S(C)(=O)=O` (stereo not given) was 148 °C; that for `COC(=O)c1cnccc1NC(=O)C(C)CSC(C)=O` (stereo not given) was 55 to 57 °C; that for `N#C/C(=C\c1ccc(O)c(O)c1)C(=O)NCCCCNC(=O)/C(C#N)=C/c1ccc(O)c(O)c1` was 283 °C.
The value for `O=C(OCCOCCOCCO)C(=O)c1ccc(OCCOc2ccc3ccccc3c2)cc1` was 70 to 71 °C; that for `CN(CCNc1ccc2c3c(nn2CCN)-c2c(OCc4ccccc4)ccc(OCc4ccccc4)c2C(=O)c13)Cc1ccccc1` was 169 to 172 °C.
Next, `Nc1nc(NCCNc2ccccc2)nc(-c2cc(Cl)ccc2Cl)n1`: 139 to 141 °C.
On to `CCOC(=O)CC(=Cn1cc[nH]c1=O)c1ccc(OC)c(OC2CCCC2)c1`, for which the melting point amounted to 164 °C.
`O=C1NC(=O)C(=Cc2ccc(-c3ccc(O)c(C45CC6CC(CC(C6)C4)C5)c3)cc2)S1` yielded a melting point of 307 to 308 °C.
In turn, `COc1ccc(C=CC=C(C#N)C#N)cc1` returned a melting point of 160 °C.
Next, `Cc1nc(NC(=O)Cc2cccs2)c(Br)c(C)c1Br`: 154 °C; `CC1(N2C(=O)c3cccc(NC(=O)c4cccc(Cl)c4)c3C2=O)CCC(=O)NC1=O` (stereo not given): 283 to 285 °C; `O=c1[nH]c2cc(C(F)(F)F)c(N3CCOCC3)cc2n2c(=O)[nH]nc12`: greater than 300 °C.
Next, `CCCCCS(=O)(=O)NC(=O)/C=C/c1ccc(OCCOC)cc1Oc1ncc(-c2ccccc2)cc1C`: 133 to 134 °C; `N#Cc1cnccc1-c1c(-c2ccccc2)nn2ccccc12`: 208 to 210 °C; `CCCn1c(=O)n2c(=O)[nH]nc2c2[nH]cnc21`: greater than 290 °C.
Next, `CC1(C)Cc2c(CO)c(O)c3c(c2C(c2ccccc2)=N1)CC(C)(C)O3`: 210 to 230 °C; `Cc1nc(-c2ccc(C(F)(F)F)cc2)sc1N`: 146 to 148 °C.
Compound `O=C1c2cc(F)ccc2-n2c1nc1cccc(F)c1c2=O` returned a melting point of 323 to 325 °C.
In turn, `CC1=CN(c2ccc(Cl)c(Cl)c2)SC1` returned a melting point of 160 to 161 °C.
The value for `CCCCOC(=O)c1cc(OCc2ccccc2)c2c(Cl)cc(Cl)cc2n1` was 130 to 132 °C; that for `Cc1cc(C)cc(SN2C(=O)CCC2=O)c1` was 131 to 134 °C.
The value for `Nc1nc(S(=O)(=O)Cl)nn1C(=O)Oc1ccccc1` was 164 °C.
Next, `O=c1c(CO)cc(-c2ccc3c(c2)CCO3)nn1CC1CC1`: 115 to 117 °C.
With `O=S1(=O)NCN(CCF)c2ccc(F)cc21`, the melting point fell in the range of 133 to 134 °C.
The value for `CN(C)C(=O)C1=C(C(=O)Nc2ccc(Br)cc2F)CCCC1` was 83 to 85 °C.
The value for `CCCCCc1ccc(C(=O)NO)cc1` was 89.9 to 90.1 °C.
Next, `O=C1CCCc2c1[nH]c1ccc(F)cc21`: 131 °C.
The compound `Cc1ccc(CSCCC(=O)O)cc1` returned a melting point of 75.8 °C.
Next, `COc1ccc(Nc2nc(Cl)nc3c(OC)cccc23)c(C)c1`: 230 to 232 °C; `Cc1cccc(C)c1C(c1cccc2ccccc12)C(C#N)C(=O)OC(C)(C)C` (stereo not given): 124 to 128 °C; `O=C1CN(c2ccccc2)C(=O)N1S(=O)(=O)c1ccc(Oc2ccccc2)cc1`: 157 to 158 °C.
Next, `COc1ccc(-c2cnc(-c3ccc(F)cc3)nc2-c2ccc(OC)cc2)cc1`: 129 to 130 °C; `CCCCn1c(C)c(N)c(=O)n(C)c1=O`: 74 to 75 °C.
The value for `O=C(Oc1ccccn1)c1cc2cc(CCl)ccc2oc1=O` was 125 to 129 °C; that for `NC(=O)C1CCCc2ccc(-c3ccccc3)nc21` (stereo not given) was 145 °C.
In turn, `S=C(NC(=Nc1ccccc1)c1ccccc1)Nc1ccccc1` showed a melting point of 143 to 144 °C.
Next, `Cc1ccc(S(=O)(=O)O)cc1C=C1C(=O)C2(C)CCC1C2(C)C` (stereo not given): 130 °C.
Next, `Cc1nn(-c2ccccn2)c2nc3ccccc3c(C#N)c12`: 210 to 211 °C.
The value for `O=c1n(CCO)c2ccccc2n1CCO` was 145 to 158 °C; that for `COc1ccc(-n2nc(Sc3cc(Cl)cc(Cl)c3)c(C)c(C#N)c2=O)cc1` was 195 to 197 °C.
As to `CCCc1nc2ccccc2n1Cc1ccc(-c2ccccc2-c2nnn[nH]2)nc1`, the melting point fell in the range of 240 to 241 °C.
Next, `NC(=O)c1cc(C(=O)O)c(O)c2ncc(Cc3ccc(F)cc3)cc12`: 265 to 266 °C.
The value for `CNC(=O)Oc1ccc(NC(=O)C(F)(F)Cl)c(C)c1` was 156 to 158 °C; that for `CC(CC(=O)Nc1cc(-c2ccnc3c(C(=O)c4cccs4)cnn23)ccc1F)C(F)(F)F` (stereo not given) was 185 to 186 °C; that for `Cc1c(Br)c2c(c(C)c1NC(=O)CC(C)(C)C)CC(C)(C)O2` was 205 to 206 °C.
`COc1ccc(Cc2cnc(N)nc2N)c(OC)c1O` showed a melting point of 246 to 248 °C.
The value for `O=C(CC1(c2ccccc2)CC1)C(=O)Nc1ccc2c(c1)COC2=O` was 132 to 138 °C.
The value for `O=Cc1cc2ccc3ccc4ccccc4c3c2o1` was 169 °C.
`CC(=O)OCN1C(=O)CN(CCN2CC(=O)N(COC(C)=O)C(=O)C2)CC1=O` gave a melting point of 178 to 181 °C.
The value for `Cc1ncc(CN2CCC(COCc3ccccc3)CC2)c(N)n1` was 106 to 108 °C; that for `COc1cc(N2CCN(Cc3ccc(CNC(C)=O)cc3)CC2)nc(OC)n1` was 89 to 90 °C; that for `CN(Cc1cc(C(F)(F)F)cc(C(F)(F)F)c1)C(=O)c1nc(Cl)c2ccccc2c1-c1ccc(F)cc1` was 142 to 143 °C.
With `CCCOc1ccc(CNC=C2C(=O)N(O)C(=O)c3ccccc32)cc1O`, the melting point is 176 to 178 °C.
The value for `CC1CC(=O)NN=C1c1ccc(NC(=O)c2cccs2)cc1` (stereo not given) was 256 to 258 °C; that for `CCC(CCOC)c1ccc(Cl)c2nc3n(c12)CCCN3c1ccc(Cl)cc1Cl` (stereo not given) was 144 to 146 °C.
Next, `Cc1cc(NC(=O)C(=O)N2CCCCC2)cc(C)c1S(=O)(=O)C[N+](=O)[O-]`: 169 to 170 °C.
Next, `CC(C)(C)c1ccc2c(c1)CCC(CN1CCCCC1)C2=O` (stereo not given): 47 to 49 °C; `OC1CCC(Nc2nc(Cl)nc(Cl)n2)CC1` (stereo not given): 120 °C.
In turn, `Cc1[nH]c2ccc(F)cc2c1C(=O)Nc1ccc(Oc2ccccc2)c(C#N)c1` gave a melting point of 237 °C.
Next, `O=C(Nc1ccccc1C(=O)NCCc1ncc[nH]1)c1ccc(Cl)cc1Cl`: 178 to 186 °C.
The value for `C=C=CS(=O)(=O)c1ncc(Cl)cn1` was 130 °C; that for `Cc1ccc(-n2c(-c3cc(-c4ccc(S(C)(=O)=O)cc4)c(N4CCOCC4)s3)nc3ccccc3c2=O)cc1` was 265 to 268 °C.
The value for `CCOC(=O)Cn1ncc(-c2ccccc2)c1-c1ccc(O)cc1` was 130 to 135 °C; that for `CCOC(=O)c1[nH]c2ccc(Cl)c(F)c2c1S(=O)(=O)c1cc(C)cc(C)c1` was 224 to 226 °C; that for `Nc1ccc2c(c1-c1ccccc1)CCC2` was 73 to 75 °C.
The compound `CCOC(=O)c1ccc(-c2cnc3c(c2)N(Cc2cc(F)ccc2F)CCN3)cc1` gave a melting point of 173 to 174 °C.
Next, `CC(C)c1cccc(C(C)C)c1NC(=O)NCC1CCCc2ccccc21` (stereo not given): 189 to 190 °C; `CC(C)OCCNc1ccccc1C(=O)C(=O)OC(=O)C(=O)c1ccccc1NCCOC(C)C`: 107 to 108 °C; `Nc1n[nH]c2cc(CN3CCN(Cc4cc5ccc(Cl)cc5s4)CC3=O)ccc12`: 246 to 248 °C.
The value for `Cc1nc2ccccn2c(=O)c1CCN1CC[C@H](Nc2nc3ccccc3n2Cc2ccc(F)cc2)[C@H](C)C1` (relative stereo) was 161 °C; that for `COC(=O)COc1ccc(N=C=O)cc1` was 50 to 53 °C; that for `O=C(O)CCNC(=O)C1CN(c2ccc(-c3noc(=O)[nH]3)cc2)C(=O)O1` (stereo not given) was 221 to 223 °C.
The value for `N#Cc1c(Cl)c2cccnc2n(Cc2ccccc2)c1=O` was 188 °C; that for `CC(=O)ON(C)C(=O)/C=C/c1ccc(-n2c(C)ccc2C)cc1` was 120 to 121 °C.
Compound `O=C(O)CN1C[C@@H](Cc2c[nH]c3ccccc23)N(C(=O)c2cc(C(F)(F)F)cc(C(F)(F)F)c2)CC1=O` displayed a melting point greater than 220 °C.
Next, `CCOC(=O)c1nc2ccc(OC)cc2nc1SCC`: 70 °C; `CCCCCCCCCCN1C(=O)C2C3CCC(O3)C2C1=O` (stereo not given): 30 to 31 °C.
Next, `C#CC(O)(c1ccccc1)c1ccc([N+](=O)[O-])cc1` (stereo not given): 88 to 89 °C; `CC(C)Cn1c(CNC(=O)OC(C)(C)C)c(-c2cccc(F)c2)c2cc(C(N)=O)ccc2c1=O`: 147 to 149 °C.
On to `COc1ccc(C=Cc2nnc(C(Cl)(Cl)Cl)o2)cc1`, for which the melting point is 140 to 142 °C.
Regarding `O=Cc1c(O)cccc1OCc1ccc(-c2nnn[nH]2)cc1`, the melting point amounted to 206 °C.
